IC50 data for 35 molecules are collected here from patent US20190292179A1 (BRISTOL-MYERS SQUIBB COMPANY, priority 2016, published 2019).

The target in this experiment is T1, HIS-TGFβR1 T204D (Homo sapiens, UniProt P36897, T204D).
T1 sequence (P36897 34-503 T204D): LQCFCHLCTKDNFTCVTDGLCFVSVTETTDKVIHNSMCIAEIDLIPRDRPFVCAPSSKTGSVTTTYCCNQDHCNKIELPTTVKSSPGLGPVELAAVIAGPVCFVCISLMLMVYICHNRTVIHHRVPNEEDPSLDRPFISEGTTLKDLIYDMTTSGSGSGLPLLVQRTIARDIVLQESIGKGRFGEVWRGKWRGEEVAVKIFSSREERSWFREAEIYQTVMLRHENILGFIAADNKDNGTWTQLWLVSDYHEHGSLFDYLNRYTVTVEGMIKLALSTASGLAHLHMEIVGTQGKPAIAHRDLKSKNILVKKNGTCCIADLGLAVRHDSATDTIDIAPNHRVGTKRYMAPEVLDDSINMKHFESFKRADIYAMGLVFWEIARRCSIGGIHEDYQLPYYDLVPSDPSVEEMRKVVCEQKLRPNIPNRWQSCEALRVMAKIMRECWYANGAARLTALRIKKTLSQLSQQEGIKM
Put plainly: HTRF probe-displacement assay with HIS-TGFβR1 T204D. The format is binding. The conditions noted are these: 1 nM HIS-TGFβR1 T204D, labeled probe at Kd, 1 hour at room temperature. The procedure:
The reaction is incubated for 1 hour at room temperature and the HTRF signal was measured on an Envision plate reader (Ex: 340 nm; Em: 520 nm/495 nm). Inhibition data were calculated by comparison to no enzyme control reactions for 100% inhibition and vehicle-only reactions for 0% inhibition. The final concentration of reagents in the assay are 1 nM HIS-TGFβR1 T204D or HIS-TGFβR2 WT, 0.2 nM anti-HIS detection antibody, labeled small molecule probe (at Kd) and 0.5% DMSO. Dose response curves were generated to determine the concentration required inhibiting 50% of kinase activity (IC50). Compounds were dissolved at 10 mM in dimethylsulfoxide (DMSO) and evaluated at eleven concentrations. IC50 values were derived by non-linear regression analysis.
As a reminder, the IC50 is the concentration that gives 50% inhibition. Read a high IC50 as a need for much substance. With `Cc1cccc(-c2c(-c3ccc4ncc(C#N)n4c3)c(C(C)C)nn2C)n1` [Example 117, 6-(3-isopropyl-1-methyl-5-(6-methylpyridin-2-yl)-1H-pyrazol-4-yl)imidazo[1,2-a]pyridine-3-carbonitrile], the concentration for half-maximal inhibition (IC50) was determined as 0.009 µM.

For `CC(=O)Nc1[nH]nc(-c2ccc(F)cc2)c1-c1ccc2ncc(C#N)n2c1` [Example 142, N-(4-(3-cyanoimidazo[1,2-a]pyridin-6-yl)-3-(4-fluorophenyl)-1H-pyrazol-5-yl)acetamide], the IC50 came out at 0.274 µM.

`N#Cc1cnc2ccc(-c3c(-c4ccc(F)cc4)n[nH]c3C(F)(F)F)cn12` [Example 105, 6-(3-(4-fluorophenyl)-5-(trifluoromethyl)-1H-pyrazol-4-yl)imidazo[1,2-a]pyridine-3-carbonitrile]: the IC50 worked out at 0.041 µM.

For the molecule `CC(C)(O)c1[nH]nc(-c2ccc(F)cc2)c1-c1ccc2nccn2c1` [Example 137, 2-(3-(4-fluorophenyl)-4-(imidazo[1,2-a]pyridin-6-yl)-1H-pyrazol-5-yl)propan-2-ol], the IC50 was found to be 0.153 µM.

For `Cn1nc(C2CC2)c(-c2ccc3ncc(F)n3c2)c1-c1ccc(F)cc1` [Example 104, 6-(3-cyclopropyl-5-(4-fluorophenyl)-1-methyl-1H-pyrazol-4-yl)-3-fluoroimidazo[1,2-a]pyridine], the IC50 stood at 2.24 µM.

Turning to `O=C(O)c1cnc2ccc(-c3c[nH]nc3-c3ccc(F)cc3)cn12` [Example 60, 6-(3-(4-fluorophenyl)-1H-pyrazol-4-yl)imidazo[1,2-a]pyridine-3-carboxylic acid], the IC50 turned out to be 0.012 µM.

Turning to `CC(C)c1c(-c2ccc3ncc(C(C)(C)O)n3c2)c(-c2ccc(F)cc2)nn1C` [Example 74, 2-(6-(3-(4-fluorophenyl)-5-isopropyl-1-methyl-1H-pyrazol-4-yl)imidazo[1,2-a]pyridin-3-yl)propan-2-ol], the IC50 came out at 0.374 µM.

`CC(C)c1[nH]nc(-c2ccc(F)cc2)c1-c1ccc2nccn2c1` [Example 69, 6-(3-(4-fluorophenyl)-5-isopropyl-1H-pyrazol-4-yl)imidazo [1,2-a]pyridine] returned an IC50 of 0.007 µM.

For `CC(=O)Nc1[nH]nc(-c2ccc(F)cc2)c1-c1ccc2ncc(C(N)=O)n2c1` [Example 143, 6-(5-acetamido-3-(4-fluorophenyl)-1H-pyrazol-4-yl)imidazo[1,2-a]pyridine-3-carboxamide], the IC50 came to 0.027 µM.

`CCOC(=O)c1[nH]nc(-c2ccc(F)cc2)c1-c1ccc2ncc(C#N)n2c1` [Example 128, ethyl 4-(3-cyanoimidazo[1,2-a]pyridin-6-yl)-3-(4-fluorophenyl)-1H-pyrazole-5-carboxylate] came in with an IC50 of 0.281 µM.

Molecule `CC(O)c1cnc2ccc(-c3c(-c4ccc(F)cc4)n[nH]c3C3CC3)cn12` (centres unmarked) [Example 91, 1-(6-(5-cyclopropyl-3-(4-fluorophenyl)-1H-pyrazol-4-yl)imidazo[1,2-a]pyridin-3-yl)ethanol] showed an IC50 of 0.008 µM.

Molecule `Cc1cccc(-c2n[nH]c(C(F)F)c2-c2ccc3nccn3c2)n1` [Example 140, 6-(5-(difluoromethyl)-3-(6-methylpyridin-2-yl)-1H-pyrazol-4-yl)imidazo[1,2-a]pyridine] yielded an IC50 of 0.001 µM.

`N#Cc1cnc2ccc(-c3c(-c4ccc(F)cc4)nn4c3COCC4)cn12` [Example 110, 6-(2-(4-fluorophenyl)-6,7-dihydro-4H-pyrazolo[5,1-c][1,4]oxazin-3-yl)imidazo[1,2-a]pyridine-3-carbonitrile] showed an IC50 of 0.173 µM.

In the case of `Nc1cc(-c2c[nH]nc2-c2ccc(F)cc2)cn2ccnc12` [Example 32, 6-(3-(4-fluorophenyl)-1H-pyrazol-4-yl)imidazo[1,2-a]pyridin-8-amine], the IC50 worked out at 0.465 µM.

`O=C(Nc1cnc2ccc(-c3c[nH]nc3-c3ccc(F)cc3)cn12)C(F)(F)F` [Example 16, 2,2,2-trifluoro-N-(6-(3-(4-fluorophenyl)-1H-pyrazol-4-yl)imidazo[1,2-a]pyridin-3-yl)acetamide] returned an IC50 of 0.187 µM.

In turn, `CCOC(=O)c1[nH]nc(-c2cccc(C)n2)c1-c1ccc2ncc(C#N)n2c1` [Example 138, ethyl 4-(3-cyanoimidazo[1,2-a]pyridin-6-yl)-3-(6-methylpyridin-2-yl)-1H-pyrazole-5-carboxylate] had an IC50 of 0.002 µM.

Consider `CC(C)(O)c1cnc2ccc(-c3c(-c4ccc(F)cc4)nn4c3COCC4)cn12` [Example 113, 2-(6-(2-(4-fluorophenyl)-6,7-dihydro-4H-pyrazolo[5,1-c][1,4]oxazin-3-yl)imidazo[1,2-a]pyridin-3-yl)propan-2-ol], for which the IC50 is 3.81 µM.

In turn, `CCc1[nH]nc(-c2ccc(F)cc2)c1-c1ccc2nccn2c1` [Example 83, 6-(5-ethyl-3-(4-fluorophenyl)-1H-pyrazol-4-yl)imidazo[1,2-a]pyridine] showed an IC50 of 0.017 µM.

The molecule `CCc1[nH]nc(-c2ccc(F)cc2)c1-c1ccc2ncc(C#N)n2c1` [Example 81, 6-(5-ethyl-3-(4-fluorophenyl)-1H-pyrazol-4-yl)imidazo[1,2-a]pyridine-3-carbonitrile] yielded an IC50 of 0.006 µM.

Regarding `CCOC(=O)c1[nH]nc(-c2cccc(C)n2)c1-c1ccc2nccn2c1` [Example 139, ethyl 4-(imidazo[1,2-a]pyridin-6-yl)-3-(6-methylpyridin-2-yl)-1H-pyrazole-5-carboxylate], the IC50 was 0.002 µM.

`CC(C)c1[nH]nc(-c2ccc(Cl)cc2)c1-c1ccc2ncc(C#N)n2c1` [Example 75, 6-(3-(4-chlorophenyl)-5-isopropyl-1H-pyrazol-4-yl)imidazo[1,2-a]pyridine-3-carbonitrile] gave an IC50 of 0.054 µM.

`CCOC(=O)c1[nH]nc(-c2ccc(F)cc2)c1-c1ccc2nccn2c1` [Example 132, ethyl 3-(4-fluorophenyl)-4-(imidazo[1,2-a]pyridin-6-yl)-1H-pyrazole-5-carboxylate]: the IC50 came out at 0.758 µM.

`CC(C)(O)c1cnc2ccc(-c3c(-c4ccc(F)cc4)n[nH]c3C3CC3)cn12` [Example 89, 2-(6-(5-cyclopropyl-3-(4-fluorophenyl)-1H-pyrazol-4-yl)imidazo[1,2-a]pyridin-3-yl)propan-2-ol] gave an IC50 of 0.01 µM.

In the case of `O=C(O)c1[nH]nc(-c2ccc(F)cc2)c1-c1ccc2nccn2c1` [Example 133, 3-(4-fluorophenyl)-4-(imidazo[1,2-a]pyridin-6-yl)-1H-pyrazole-5-carboxylic acid], the concentration for half-maximal inhibition (IC50) came to 25.3 µM.

Regarding `FC(F)(F)c1cccc(-c2n[nH]cc2-c2ccc3nccn3c2)n1` [Example 3, 6-(3-(6-(trifluoromethyl)pyridin-2-yl)-1H-pyrazol-4-yl)imidazo[1,2-a]pyridine], the IC50 came to 0.001 µM.

In the case of `Cc1cccc(-c2nn(C)cc2-c2ccc3ncc(NC(=O)C(F)(F)F)n3c2)n1` [Example 54], the IC50 was determined as 0.079 µM.

Molecule `Cn1nc(C(F)(F)F)c(-c2ccc3ncc(C(N)=O)n3c2)c1-c1ccc(F)cc1` [Example 109, 6-(5-(4-fluorophenyl)-1-methyl-3-(trifluoromethyl)-1H-pyrazol-4-yl)imidazo[1,2-a]pyridine-3-carboxamide] came in with an IC50 of 1.13 µM.

`N#Cc1cnc2ccc(-c3c(-c4ccc(Cl)cc4)n[nH]c3C3CC3)cn12` [Example 96, 6-(3-(4-chlorophenyl)-5-cyclopropyl-1H-pyrazol-4-yl)imidazo[1,2-a]pyridine-3-carbonitrile] yielded an IC50 of 0.07 µM.

For the molecule `C=C(C)c1[nH]nc(-c2ccc(F)cc2)c1-c1ccc2nccn2c1` [Example 136, 6-(3-(4-fluorophenyl)-5-(prop-1-en-2-yl)-1H-pyrazol-4-yl)imidazo[1,2-a]pyridine], the IC50 was determined as 0.023 µM.

In the case of `Cn1nc(-c2ccc(F)cc2)c(-c2ccc3ncc(C(N)=O)n3c2)c1C(F)(F)F` [Example 108, 6-(3-(4-fluorophenyl)-1-methyl-5-(trifluoromethyl)-1H-pyrazol-4-yl)imidazo[1,2-a]pyridine-3-carboxamide], the 50% inhibitory concentration (IC50) was determined as 0.022 µM.

With `Fc1ccc(-c2n[nH]c(C3CC3)c2-c2ccc3ncc(F)n3c2)cc1` [Example 102, 6-(5-cyclopropyl-3-(4-fluorophenyl)-1H-pyrazol-4-yl)-3-fluoroimidazo[1,2-a]pyridine], the IC50 was 0.014 µM.

Regarding `Cc1cccc(-c2nn(C)cc2-c2ccc3ncc(C(C)(C)O)n3c2)n1` [Example 52], the IC50 is 0.007 µM.

Regarding `Cc1cccc(-c2c(-c3ccc4nccn4c3)c(C(C)C)nn2C)n1` [Example 120, 6-(3-isopropyl-1-methyl-5-(6-methylpyridin-2-yl)-1H-pyrazol-4-yl)imidazo[1,2-a]pyridine], the IC50 turned out to be 0.115 µM.

Molecule `N#Cc1cnc2ccc(-c3c(-c4ccc(F)cc4)n[nH]c3C(=O)NC3CC3)cn12` [Example 131, 4-(3-cyanoimidazo[1,2-a]pyridin-6-yl)-N-cyclopropyl-3-(4-fluorophenyl)-1H-pyrazole-5-carboxamide] came in with an IC50 of 1.41 µM.

In turn, `Clc1ccc(-c2n[nH]c(C3CC3)c2-c2ccc3nccn3c2)cc1` [Example 98, 6-(3-(4-chlorophenyl)-5-cyclopropyl-1H-pyrazol-4-yl)imidazo[1,2-a]pyridine] registered an IC50 of 0.05 µM.
